Read-outs that look alike come from different tables or passages of the source.

Series [1] in a line: Microsomal stability assay, rat liver microsomes. (Microsomes from liver hold many membrane-bound enzymes, among them those of drug oxidation.)
For series [2], the target named is CYP2D6 (Homo sapiens, UniProt P10635). As to the kind of experiment: CYP2D6 inhibition assay (bufuralol, pooled human liver microsomes).
For series [3], the target named is Beta Secretase enzyme (BACE) (Homo sapiens, UniProt P56817). Description: In vitro enzymatic BACE FRET (fluorescence resonance energy transfer) assay.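 Note: fluorescence read after 1 h with 50 nM quenched peptide substrate spanning the BACE cleavage site, in pH 4.2 acetate buffer containing 10% DMSO and nonionic detergent.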 It is filed as biochemical.
Chain of Beta Secretase enzyme (BACE) (P56817 46-501): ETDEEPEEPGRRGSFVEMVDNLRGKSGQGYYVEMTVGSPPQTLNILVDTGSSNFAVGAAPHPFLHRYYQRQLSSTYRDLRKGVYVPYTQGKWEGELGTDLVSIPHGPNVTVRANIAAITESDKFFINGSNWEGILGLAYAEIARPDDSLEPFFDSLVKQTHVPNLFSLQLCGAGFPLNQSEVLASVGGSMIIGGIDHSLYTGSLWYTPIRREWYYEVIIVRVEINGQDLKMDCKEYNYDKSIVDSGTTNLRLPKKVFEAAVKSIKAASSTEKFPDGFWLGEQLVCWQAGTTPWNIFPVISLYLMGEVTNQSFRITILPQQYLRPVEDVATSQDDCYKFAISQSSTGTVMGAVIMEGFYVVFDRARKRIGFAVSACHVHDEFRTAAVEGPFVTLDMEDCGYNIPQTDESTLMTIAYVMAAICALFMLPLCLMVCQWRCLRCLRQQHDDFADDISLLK
Series [4] deals with Aβ40 in conditioned medium of cells stably expressing Amyloid Precursor Protein (APP). Description: In vitro BACE cell-based assay (Aβ40 in conditioned medium, sandwich ELISA).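 Note: compounds added as a dilution series, secreted peptide quantified by europium time-resolved fluorescence readout, potency fitted from percent of control versus compound concentration.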 The settings on record: Homo sapiens. (In an ELISA, binding on a coated surface is turned into a signal by an enzyme label.)
The target in series [5] is CYP3A4 (CYP3A) (Homo sapiens, UniProt P08684). As to the kind of experiment: in vitro. The following applies: microsomes, pH 7.4.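 Note: inhibition of CYP3A-mediated 1-hydroxymidazolam formation after 10 min incubation with NADPH, quantified by HPLC MS relative to metabolite produced without test compound.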
Chain of CYP3A4 (CYP3A) (P08684 2-503): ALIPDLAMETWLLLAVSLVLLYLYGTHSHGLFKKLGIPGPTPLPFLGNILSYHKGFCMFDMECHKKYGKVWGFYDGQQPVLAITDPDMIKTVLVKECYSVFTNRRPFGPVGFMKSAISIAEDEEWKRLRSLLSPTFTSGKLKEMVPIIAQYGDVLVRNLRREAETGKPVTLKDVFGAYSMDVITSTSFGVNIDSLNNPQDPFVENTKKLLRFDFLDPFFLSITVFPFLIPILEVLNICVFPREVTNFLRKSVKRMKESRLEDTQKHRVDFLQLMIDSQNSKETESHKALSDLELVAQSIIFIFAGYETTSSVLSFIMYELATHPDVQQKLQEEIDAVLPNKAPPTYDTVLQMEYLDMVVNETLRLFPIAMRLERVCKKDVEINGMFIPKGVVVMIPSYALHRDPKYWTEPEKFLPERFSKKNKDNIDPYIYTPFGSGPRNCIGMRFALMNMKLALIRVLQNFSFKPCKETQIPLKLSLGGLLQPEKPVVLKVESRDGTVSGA
Series [6] can be described thus: Microsomal stability assay, human liver microsomes.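 Note: pooled human liver microsomes at 0.25 mg/mL with 1 µM compound and NADPH at 37 °C, pH 7.4, for 30 min, unchanged parent quantified by LC-MS/MS against the 0 min sample.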
The mark [7] stands for this setting: 2D6 IC50 (uM), CYP enzyme inhibition.
Where [8] appears, read: BACE enzyme assay, IC50's in uM, read-out: BACE1 FRET assay.
[9] abbreviates: HEK293, HEK cell-based assay, IC50's in uM, read-out: HEK cell assay.
[10] abbreviates: 2D6 IC50 (uM), CYP2D6 inhibition.
Setting [11] is: BACE enzyme assay IC50, read-out: BACE1 FRET assay.
The mark [12] stands for this setting: HEK293, HEK cell-based assay IC50, read-out: HEK cell assay.
Setting [13] is: read-out: BACE1 FRET assay (IC50).
The mark [14] stands for this setting: HEK293, HEK cells, read-out: HEK cell assay (IC50).
The mark [15] stands for this setting: 2D6 IC50, CYP enzyme inhibition.
The mark [16] stands for this setting: BACE enzyme assay, read-out: BACE1 FRET assay.
[17] abbreviates: HEK293, HEK cells, read-out: HEK cell assay.
Setting [18] is: HEK293, cell-based assay, HEK cells, IC50's in uM, read-out: HEK cell assay.
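Throughout, for RLM: rat liver microsomes (0.25 mg/mL) with about 1 µM compound plus 1 mM NADPH, pH 7.4, 37 °C for 30 min, parent left measured by LC-MS/MS against 0 min.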

Chain of CYP2D6 (P10635 whole entry): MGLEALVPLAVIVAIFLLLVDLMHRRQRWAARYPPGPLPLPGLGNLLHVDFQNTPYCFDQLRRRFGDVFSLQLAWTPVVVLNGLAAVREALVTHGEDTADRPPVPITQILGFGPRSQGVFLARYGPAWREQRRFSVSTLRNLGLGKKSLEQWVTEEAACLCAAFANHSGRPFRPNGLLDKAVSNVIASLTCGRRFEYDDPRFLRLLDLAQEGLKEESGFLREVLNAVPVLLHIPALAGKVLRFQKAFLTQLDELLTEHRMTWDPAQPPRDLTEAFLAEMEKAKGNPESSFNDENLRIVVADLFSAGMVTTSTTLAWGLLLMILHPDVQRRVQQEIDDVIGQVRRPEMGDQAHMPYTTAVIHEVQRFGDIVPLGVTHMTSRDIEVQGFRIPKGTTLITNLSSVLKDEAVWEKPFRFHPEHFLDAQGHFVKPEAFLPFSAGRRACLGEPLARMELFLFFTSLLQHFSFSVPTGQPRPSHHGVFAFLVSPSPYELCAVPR

As for `CO[C@H](C)C(=O)N[C@@H](Cc1cccc(Br)c1)[C@H](O)CN[C@H]1CC2(CCC2)Oc2ncc(CC(C)C)cc21` [compound 801], in series [1] (rat liver microsomal data), the “RLM” value was 644 µL/min/mg. In addition, the IC50 in series [2] (setting [7]) worked out at 3.8 µM; in series [3] (setting [8]) it was 0.016 µM; in series [4] (setting [9]), 0.118 µM; in series [5], 300 nM. Moreover, the “HLM” value in series [6] (human liver microsomal data) is 399 µL/min/mg.
With `C#Cc1cccc(C[C@H](NC(=O)COC)[C@H](O)CN[C@H]2CC3(CCC3)Oc3ncc(CC)cc32)c1` [compound 842], the “RLM” value in series [1] (rat liver microsomal data) was determined as 57 µL/min/mg. Besides, the IC50 in series [2] (setting [7]) came out at 4.9 µM; in series [3] (setting [8]), 0.026 µM; in series [4] (setting [9]), 0.065 µM; in series [5], 200 nM. Besides, in series [6] (human liver microsomal data), the “HLM” value amounted to 55 µL/min/mg.
Regarding `CC(C)(C)Cc1cnc2c(c1)[C@@H](NC[C@@H](O)[C@H](Cc1ccc(F)cc1)NC(=O)[C@@H]1CN(Cc3ccccc3)CCO1)CC1(CCC1)O2` [compound 711], the “RLM” value in series [1] (rat liver microsomes) turned out to be 399 µL/min/mg. The IC50 in series [2] (setting [10]) came out at 8.2 µM; in series [3] (setting [11]) it was 0.04 µM; in series [4] (setting [12]), 0.124 µM; in series [5] it was 300 nM. Moreover, the “HLM” value in series [6] (human liver microsomes) came to 706 µL/min/mg.
In turn, `CO[C@H](C)C(=O)N[C@@H](Cc1ccncc1)[C@H](O)CN[C@H]1CC2(CCC2)Oc2ncc(C(F)(F)F)cc21` [compound 653] had an RLM in series [1] (rat liver microsomes) of 114 µL/min/mg. Also, the IC50 in series [2] (2D6 IC50, CYP2D6 inhibition) was 5.8 µM; in series [3] (setting [13]), 6.74 µM; in series [4] (setting [14]), above 10 µM; in series [5] it was 600 nM. This compound displayed an HLM in series [6] (human liver microsomes) of 178 µL/min/mg.
Compound `COCC(=O)N[C@@H](Cc1ccnc(OC)c1)[C@H](O)CN[C@H]1CC2(CCC2)Oc2ncc(CC(C)(C)C)cc21` [compound 474] returned an RLM in series [1] (rat liver microsomal data) of 174 µL/min/mg. The IC50 in series [2] (setting [15]) stood at 6.5 µM; in series [3] (Table 2, read-out: BACE1 FRET assay), 0.013 µM; in series [4] (HEK293, Table 2, HEK cells, read-out: HEK cell assay), 0.022 µM; in series [5], 2000 nM. Besides, in series [6] (human liver microsomal data), the HLM is 172 µL/min/mg.
For the compound `COCC(=O)N[C@@H](Cc1ccc2c(c1)OCO2)[C@H](O)CN[C@H]1CC2(CCC2)Oc2ccc(C[C@H](C)F)cc21` [compound 557], the “RLM” value in series [1] (rat liver microsomal data) amounted to 344 µL/min/mg. Also, the IC50 in series [2] (setting [7]) was 0.5 µM; in series [3] (setting [16]), 3.79 µM; in series [4] (setting [17]), above 10 µM; in series [5], 300 nM. Also, in series [6] (human liver microsomal data), the “HLM” value was found to be 193 µL/min/mg.
`COCC(=O)N[C@@H](Cc1cc(F)cc(F)c1)[C@H](O)CN[C@H]1CC2(CCC2)Oc2c(-c3ccncc3)cc(Cl)cc21` [compound 560]: the “RLM” value in series [1] (rat liver microsomal data) worked out at 829 µL/min/mg. Besides, the IC50 in series [2] (setting [7]) amounted to 0.4 µM; in series [3] (setting [16]) it was 0.049 µM; in series [4] (setting [17]) it was 0.058 µM; in series [5], 200 nM. The “HLM” value in series [6] (human liver microsomal data) came out at 209 µL/min/mg.
Take `CC[C@H](OC)C(=O)N[C@@H](Cc1ccc(F)cc1)[C@H](O)CN[C@H]1CC2(CCC2)Oc2ncc(CC(C)(C)C)cc21` [compound 572]: in series [1] (rat liver microsomal data), the “RLM” value worked out at 569 µL/min/mg. The IC50 in series [2] (setting [7]) is 8.1 µM; in series [3] (setting [16]), 0.102 µM; in series [4] (setting [17]) it was 0.094 µM; in series [5] it was 200 nM. The “HLM” value in series [6] (human liver microsomal data) amounted to 290 µL/min/mg.
In series [1] (rat liver microsomes), `CC(=O)N[C@@H](Cc1cc(F)cc(-c2ccncc2)c1)[C@H](O)CN[C@H]1CC2(CCC2)Oc2ncc(CC(C)(C)C)cc21` [compound 614] returned an RLM of 107 µL/min/mg. Also, the IC50 in series [2] (2D6 IC50, CYP2D6 inhibition) amounted to 0.4 µM; in series [3] (setting [13]), 0.012 µM; in series [4] (setting [14]), 0.008 µM; in series [5], 160 nM. The HLM in series [6] (human liver microsomes) came to 244 µL/min/mg.
For the compound `COCC(=O)N[C@@H](Cc1ccc(F)cc1)[C@H](O)CN[C@H]1CC2(CCC2)Oc2c1cc(CC(C)(C)C)nc2-c1ccncc1` [compound 549], the “RLM” value in series [1] (rat liver microsomal data) is 122 µL/min/mg. Besides, the IC50 was found to be 2 µM in series [2] (setting [7]), 0.071 µM in series [3] (setting [16]), 0.296 µM in series [4] (setting [17]) and 100 nM in series [5]. For the same compound, the “HLM” value in series [6] (human liver microsomal data) was determined as 38 µL/min/mg.
Take `C#Cc1cccc(C[C@H](NC(=O)COC)[C@H](O)CN[C@H]2CC3(CCC3)Oc3ncc(CC(C)(C)C(F)(F)F)cc32)c1` [compound 838]: the “RLM” value in series [1] (rat liver microsomal data) is 54 µL/min/mg. Moreover, the IC50 in series [2] (setting [7]) worked out at 2 µM; in series [3] (setting [8]), 0.01 µM; in series [4] (setting [9]), 0.028 µM; in series [5], 100 nM. Further, the “HLM” value in series [6] (human liver microsomal data) amounted to 34 µL/min/mg.
On to `CC(=O)N[C@@H](Cc1ccc(F)cc1)[C@H](O)CN[C@H]1CC2(CCNC2)Oc2cnc(CC(C)(C)C)cc21` (stereo partly drawn) [compound 702], for which, in series [1] (rat liver microsomes), the “RLM” value was found to be 26 µL/min/mg. Moreover, the IC50 in series [2] (setting [10]) was 13.5 µM; in series [3] (setting [11]), 36.4 µM; in series [4] (setting [12]), 0.454 µM; in series [5], 1800 nM. The “HLM” value in series [6] (human liver microsomes) is 14 µL/min/mg.
With `COCC(=O)N[C@@H](Cc1cc(F)cc(-c2nccs2)c1)C(=O)CN[C@H]1CC2(CCC2)Oc2ncc(CC(C)C)cc21` [compound 918], the RLM in series [1] (rat liver microsomal data) was determined as 128 µL/min/mg. Further, the IC50 was 0.5 µM in series [2] (setting [15]), 0.0164 µM in series [3] (setting [8]), above 10 µM in series [4] (setting [18]) and 100 nM in series [5]. This compound also had an HLM in series [6] (human liver microsomal data) of 116 µL/min/mg.
The compound `CCCc1cnc2c(c1)[C@@H](NC[C@@H](O)[C@H](Cc1cc(F)cc(-c3nccs3)c1)NC(=O)COC)CC1(CCC1)O2` [compound 865] returned an RLM in series [1] (rat liver microsomal data) of 74 µL/min/mg. The IC50 in series [2] (setting [15]) turned out to be 0.7 µM; in series [3] (setting [8]), 0.086 µM; in series [4] (setting [18]), 0.879 µM; in series [5], 300 nM. The HLM in series [6] (human liver microsomal data) is 125 µL/min/mg.
Take `CCCc1cnc2c(c1)[C@@H](NC[C@@H](O)[C@H](Cc1cc(F)cc(-c3nccs3)c1)NC(=O)[C@@H](C)OC)CC1(CCC1)O2` [compound 853]: the RLM in series [1] (rat liver microsomal data) amounted to 101 µL/min/mg. For the same compound, the IC50 is 0.7 µM in series [2] (setting [15]), 0.043 µM in series [3] (setting [8]), 0.075 µM in series [4] (setting [18]) and 400 nM in series [5]. The compound also yielded an HLM in series [6] (human liver microsomal data) of 93 µL/min/mg.
Take `CO[C@H](C)C(=O)N[C@@H](Cc1ccc2c(c1)OCO2)[C@H](O)CN[C@H]1CC2(CCC2)Oc2c1cc(CC(C)C)nc2Cl` [compound 657, (2R)-N-((1S,2R)-1-(1,3-benzodioxol-5-ylmethyl)-3-(((4′S)-8′-chloro-6′-(2-methylpropyl)-3′,4′-dihydrospiro[cyclobutane-1,2′-pyrano[2,3-c]pyridin]-4′-yl)amino)-2-hydroxypropyl)-2-methoxypropanamide]: in series [1] (rat liver microsomes), the RLM was 178 µL/min/mg. Besides, the IC50 in series [2] (2D6 IC50, CYP2D6 inhibition) was 5.3 µM; in series [3] (setting [13]), 0.03 µM; in series [4] (setting [14]) it was 0.524 µM; in series [5], 160 nM. The HLM in series [6] (human liver microsomes) is 96 µL/min/mg.
For `CO[C@H](C)C(=O)N[C@@H](Cc1cc(F)cc(-c2nccs2)c1)[C@H](O)CN[C@H]1CC2(CCC2)Oc2ccc(CC(C)C)cc21` [compound 770], in series [1] (rat liver microsomal data), the “RLM” value was determined as 201 µL/min/mg. For the same compound, the IC50 came to 0.5 µM in series [2] (setting [7]), 0.01 µM in series [3] (setting [8]), 0.052 µM in series [4] (setting [9]) and 300 nM in series [5]. Further, the “HLM” value in series [6] (human liver microsomal data) worked out at 145 µL/min/mg.
As for `COCC(=O)N[C@@H](Cc1ccc(F)c(-c2ncc(C)s2)c1)[C@H](O)CN[C@H]1CC2(CCC2)Oc2ncc(CC(C)(C)C)cc21` [compound 729], the “RLM” value in series [1] (rat liver microsomes) was found to be 399 µL/min/mg. Besides, the IC50 was 3.9 µM in series [2] (setting [10]), 0.048 µM in series [3] (setting [11]), 0.291 µM in series [4] (setting [12]) and 400 nM in series [5]. Moreover, the “HLM” value in series [6] (human liver microsomes) was determined as 371 µL/min/mg.
Turning to `CO[C@H](C)C(=O)N[C@@H](Cc1cccc(-c2nccs2)c1)[C@H](O)CN[C@H]1CC2(CCC2)Oc2ncc(CC(C)C)cc21` [Example 776, (2R)-N-((1S,2R)-2-hydroxy-3-(((4′S)-6′-(2-methylpropyl)-3′,4′-dihydrospiro[cyclobutane-1,2′-pyrano[2,3-b]pyridin]-4′-yl)amino)-1-(3-(1,3-thiazol-2-yl)benzyl)propyl)-2-methoxypropanamide], the “RLM” value in series [1] (rat liver microsomal data) came to 61 µL/min/mg. Moreover, the IC50 in series [2] (setting [7]) is 0.7 µM; in series [3] (setting [8]) it was 0.014 µM; in series [4] (setting [9]), 0.027 µM; in series [5], 200 nM. Besides, the “HLM” value in series [6] (human liver microsomal data) worked out at 58 µL/min/mg.
In series [1] (rat liver microsomes), `COCC(=O)N[C@@H](Cc1cccc(F)c1)[C@H](O)CN[C@H]1CC2(CCC2)Oc2c1cc(CC(C)(C)F)cc2-n1ccnc1` [compound 588] showed an RLM of 74 µL/min/mg. Moreover, the IC50 was 0.6 µM in series [2] (2D6 IC50, CYP2D6 inhibition); 0.027 µM in series [3] (setting [13]); 0.006 µM in series [4] (setting [14]); 100 nM in series [5]. The HLM in series [6] (human liver microsomes) is 25 µL/min/mg.

(Values after US8163909B2, “Substituted hydroxyethyl amine compounds as beta-secretase modulators and methods of use” (Amgen Inc., priority 2007, dated 2012).)
